Experimental data taken from patent publication US8815517B2, “Methods for identifying functionally related genes and drug targets” (Ribonomics, Inc., priority 1999, dated 2014).

What was measured:
Format in all cases: cell-based, murine
G11 cells [1] = assay: Induction of differentiation of HuB (Hel-N2) stably transfected P19 (G11) cells; conditions: 5% DMSO, harvested after about eight days
Procedure: The cells were then plated into two 100 mm gelatin-coated tissue culture plates. Cells were harvested after an additional four days. […] Neuronal differentiation was induced by treating 5×10^5 G11 or P19 cells placed on a 60 mm petri dish with 0.5 μM RA (Sigma-Aldrich, St. Louis, Mo., Catalog # R2625). Muscle differentiation was induced by treating 5×10^5p19 cells placed on a 60 mm petri dish with 5% DMSO (Sigma-Aldrich, St. Louis, Mo., Catalog # D2650). After two days, 25% of the cells that had formed into clumps were removed, placed in new petri dishes, and supplemented with fresh medium and RA or DMSO. Following an additional two days, cell aggregates were washed once with phosphate-buffered saline (PBS) and trypsinized. The cells were then plated into two 100 mm gelatin-coated tissue culture plates. Cells were harvested after an additional four days. […] Cell extracts and immunoprecipitations were performed as described in Example 1. Monoclonal anti-gene 10 (g10) antibodies were obtained from Duke University (Durham, N.C.) as previously described in Examples 1 and 2.

G11 cells [2] = assay: Quantitative PCR of CACN, CELSR and MBNL RNA expression in G11 cells over the time course of differentiation; conditions: time course of one to nine days
Procedure: The expression of these three genes was analyzed by Quantitative RT-PCR during a time course of one to nine days of treatment with either dimethyl-sulfoxide or retinoic acid. To verify a role in neuronal differentiation, a comprehensive transcriptional analysis by Quantitative PCR was undertaken looking at the patterns of RNA expression for the […], and MBNL genes in the G11 cells (constitutively expressing HuB) and in the parental P19 cells (FIGS. 12A, 12B, and 12C).

G11 cells [3] = assay: Microarray of total cellular RNA of G11 cells, differentiated/undifferentiated; conditions: change in amount of RNA, day 1 and day 9
Procedure: Neuronal differentiation was induced by treating 5×10^5 G11 or P19 cells placed on a 60 mm petri dish with 0.5 μM RA (Sigma-Aldrich, St. Louis, Mo., Catalog # R2625). Muscle differentiation was induced by treating 5×10^5p19 cells placed on a 60 mm petri dish with 5% DMSO (Sigma-Aldrich, St. Louis, Mo., Catalog # D2650). After two days, 25% of the cells that had formed into clumps were removed, placed in new petri dishes, and supplemented with fresh medium and RA or DMSO. Following an additional two days, cell aggregates were washed once with phosphate-buffered saline (PBS) and trypsinized. The cells were then plated into two 100 mm gelatin-coated tissue culture plates. Cells were harvested after an additional four days. […] Cell extracts and immunoprecipitations were performed as described in Example 1. Monoclonal anti-gene 10 (g10) antibodies were obtained from Duke University (Durham, N.C.) as previously described in Examples 1 and 2. Following immunoprecipitation, the associated mRNAs were identified on high density mouse 12K glass slide microarrays (Mouse cDNA microarray kit, Catalog # […], Agilent Technologies, Palo Alto, Calif.). RNA labeling and microarray analysis was performed according to the manufacturer's protocols (Agilent Technologies, Palo Alto, Calif.).

SMILES	muscle differentiation (morphology and markers) (G11 cells [1])	expression patterns of the CACN, CELSR and MBNL genes (G11 cells [2])	ΔTotal Cellular RNA, CACN (G11 cells [3])	ΔTotal Cellular RNA, CELSR (G11 cells [3]) [X]	ΔTotal Cellular RNA, MBNL (G11 cells [3])
C[S+](C)[O-] [DMSO, dimethyl-sulfoxide]	displayed characteristic muscle cell markers and morphology	failed to induce changes	–	–	–
CC1=C(/C=C/C(C)=C/C=C/C(C)=C/C(=O)O)C(C)(C)CCC1 [RA, retinoic acid]	–	–	+1.31X	−1.33	+1.42X
